Experimental data reported in patent US12226396B2, “Gluconic acid derivatives for use in the treatment and/or prevention of microbial infections” (GEDEA BIOTECH AB, priority 2017, dated 2025).

Legend:
C. albicans [1] = assay: Viability of mature biofilm, XTT assay; format: cell-based, Candida albicans; details: 48 h of incubation with GDA
Protocol: XXT is a colorimetric assay for quantification of cellular viability, and cytotoxicity. The assay is based on the cleavage of the tetrazolium salt XTT, a conversion that only occurs in viable cells. […] Then the cells were washed 2 times with PBS, after which the XTT reaction mixture was added. After 30 min the optical density measured at 485 nm.

C. albicans [2] = assay: Mature biofilm cell survival, serial dilution plating on YPD; format: cell-based, Candida albicans
Protocol: The plated cells were incubated for 24 h at 37° C. and visually analyzed. The cells from the mature biofilm treated with water were used as a control. […] At the concentrations of 0.2 and 0.5 g/ml after 5 h of incubation the cell viability was decreased by about 100 times for both C. albicans and C. glabrata.

[3] = test system: Pseudomonas aeruginosa (PAO1) CCUG 56489/ATCC 15692; assay: MIC microdilution test; format: cell-based; details: CCUG 56489, aerobic
Protocol: (§1) The test substance solution was prepared aseptically at 1 g/ml in sterile H2O. […] After 48 and 72 hours of incubation, the OD was measured and ocular assessments were done. […] All strains were recovered from microbanks and streak and subculture plates were made. The aerobes on TSA plates, the fastidious aerobes on horse blood plates and the anaerobe on FAA plates. […] At the time of testing, loopfuls of colonies selected from 18- to 24-hour agar plates for the aerobes and fastidious aerobes were suspended in 5 ml saline in 10 ml tubes containing 10 glass beads a 3 mm in diameter. […] The cell suspensions were then vortexed vigorously for 1 minute to obtain a turbid suspension. Each suspension of the aerobes and fastidious aerobes was adjusted to equal OD 0.28 at 475 nm using a spectrophotometer, which correlates approximately to 1-3×10^8 CFU/ml with most species. For the anaerobe, the OD measurement turned out to be difficult due to the use of blood in the culture medium. […] The aerobes and fastidious aerobes were further diluted in saline 10 times so that the inoculum concentration equaled to […]. The anaerobe was not diluted but used directly as is. The different aerobic and fastidious aerobic bacterial suspensions were transferred to respective wells of a 96 well plate. A. baumannii, E. coli, and P. aeruginosa were placed in one row, the Staphylococci spp. were placed in a second row, and the fastidious aerobes were placed in a third row of the plate. The anaerobe was transferred from a 25 ml multichannel pipette reservoir. The Microdilution Preparations and the MIC tests were performed as in example 13.

[4] = test system: Escherichia coli CCUG 3274/ATCC 10536; assay: MIC microdilution test; format: cell-based; details: CCUG 3274, aerobic
Protocol: as §1

[5] = test system: Streptococcus agalactiae CCUG 29376; assay: MIC microdilution test; format: cell-based; details: CCUG 29376, 5% CO2
Protocol: as §1

[6] = test system: Streptococcus pyogenes CCUG 47803/ATCC 700294; assay: MIC microdilution test; format: cell-based; details: CCUG 47803, 5% CO2
Protocol: as §1

[7] = test system: Staphylococcus aureus CCUG 15915/ATCC 29213; assay: MIC microdilution test; format: cell-based; details: CCUG 15915, aerobic
Protocol: as §1

[8] = test system: Porphyromonas gingivalis CCUG 25893/ATCC 33277; assay: MIC microdilution test; format: cell-based; details: CCUG 25893, strict anaerobic conditions
Protocol: as §1

[9] = test system: Beta-Hemolytic Streptococci Groups C Streptococcus dysgalactiae ss equisimilis CCUG 4211; assay: MIC microdilution test; format: cell-based; details: CCUG 4211, 5% CO2
Protocol: as §1

[10] = test system: Acetinobacter baumanii CCUG 57035; assay: MIC microdilution test; format: cell-based; details: CCUG 57035, aerobic
Protocol: as §1

[11] = test system: Beta-Hemolytic Streptococci Groups G Streptococcus dysgalactiae ss equisimilis CCUG 7975; assay: MIC microdilution test; format: cell-based; details: CCUG7975, 5% CO2
Protocol: as §1

[12] = test system: Staphylococcus epidermidis CCUG 23118; assay: MIC microdilution test; format: cell-based; details: CCUG 23118, aerobic
Protocol: as §1

- MIC (g/ml) [3]: 0.0031 g/ml
- MIC (g/ml) [4]: 0.0063 g/ml
- MIC (g/ml) [6]: 0.0031 g/ml
- MIC (g/ml) [7]: 0.0063 g/ml
- MIC (g/ml) [8]: 0.0031 g/ml
- MIC (g/ml) [10]: 0.0031 g/ml
- MIC (g/ml) [12]: 0.0031 g/ml
Structure (SMILES): O=C1O[C@H](CO)[C@@H](O)[C@H](O)[C@H]1O [GDA, glucono-δ-lactone]
- decrease in viability of mature biofilm (XTT) (C. albicans [1]): clearly seen
- decrease of cell viability (C. albicans [2]; 0.2 and 0.5 g/ml, 5 h of incubation, 37° C): about 100 times
- decrease of cell viability (C. albicans [2]; 0.5 g/ml, 73 h of incubation): about 1000 times
- MIC (g/ml) [5]: 0.0031 g/ml
- MIC (g/ml) [9]: 0.0016 g/ml
- MIC (g/ml) [11]: 0.0031 g/ml
